These results are taken from EP4741397A1, “FUSED TRICYCLIC COMPOUND, AND PREPARATION METHOD THEREFOR AND USE THEREOF” (Shenzhen Zhongge Biological Technology Co., Ltd., priority 2023, dated 2025).

Series [1] is described as follows: Cell membrane permeability (cell monolayer, A to B and B to A). The class given is in vitro ADME. As to conditions: 120 min, 37°C. As to the method: Test compounds were diluted from 10 mM stock solution to a concentration of 10 µM in transport buffer (HBSS + BSA) and applied to the apical or basolateral side of the cell monolayer. The permeability of the test compounds was determined in both direction of from A to B and B to A directions after 120 min incubation at 37°C, 5% CO2 and 95% relative humidity. In addition, the efflux ratio of each compound was determined. The analyte and reference compounds were quantified by LC-MS/MS based on the analyte/IS peak area ratio.

A further series addresses T1, SARM1 (Homo sapiens, UniProt Q6SZW1).
T1 construct: 408-724 expression plasmid and vector-control customized by SinoBio; host or cells: NRK1-HEK293T cells, transient transfection; crude clarified lysate used as the enzyme
T1 sequence (Q6SZW1 408-724 limits assumed): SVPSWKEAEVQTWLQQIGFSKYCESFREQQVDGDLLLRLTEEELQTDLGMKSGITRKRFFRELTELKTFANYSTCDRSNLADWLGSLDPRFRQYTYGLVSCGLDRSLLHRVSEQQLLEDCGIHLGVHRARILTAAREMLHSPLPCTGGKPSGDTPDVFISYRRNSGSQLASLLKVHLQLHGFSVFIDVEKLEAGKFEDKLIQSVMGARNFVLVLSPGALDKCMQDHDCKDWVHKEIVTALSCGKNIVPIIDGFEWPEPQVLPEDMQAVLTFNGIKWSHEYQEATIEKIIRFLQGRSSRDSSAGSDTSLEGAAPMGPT
The experiment in a line: In vitro enzyme inhibition activity (SAM-TIR lysate, NAD/ADPR by HPLC-MS/MS). The class given is biochemical. As to conditions: SAM-TIR lysate (SARM1 408-724) from NRK1-HEK293T cells; 25°C, 3 h with NAD. As to the method:
NRK1-HEK293T cells were seeded at approximately 10 × 10^6 cells/plate into 150 mm culture dishes containing 25 mL of growth medium. […] At the time of transfection, 250 µL of nicotinamide riboside (100 mM) was added to each dish to minimize toxicity from SAM-TIR overexpression. 48 hours after the transfection, the cells were washed three to four times with cold PBS and collected. The cells were resuspended in 0.5 mL of PBS containing protease inhibitors. Cell lysates were prepared by sonication. The lysate was centrifuged at 12500 rpm for 10 min at 4°C to remove cell debris, and protein concentration was determined by bicinchoninic acid (BCA) assay and used to normalize lysate concentration. The aliquots of supernatant were stored at -80°C until use.
• 1) Transfer the compound dilutions into an assay plate by Echo 650; • 2) Add 10µl 2× SAM-TIR lysate to each well; • 3) Seal the assay plate, centrifuge at 1000rpm for 1min, and incubate at 25°C for 30min; • 4) Add 10µl 2× NAD to each well; • 5) Centrifuge at 1000rpm for 1min, and incubate at 25°C for 3h; • 6) Add 40µL trichloroacetic acid to each well to terminate the reaction, mix and shake for 30s, and centrifuge at 4000rpm for 10min; • 7) Take 40µL supernatant from each well and add appropriate amount of ammonia water to adjust the pH; • 8) Detect nicotinamide adenine dinucleotide (NAD) and adenosine diphosphate ribose (ADPR) by HPLC-MS/MS.

The next series concerns sciatic nerve. The experiment in a line: Mouse sciatic nerve axotomy (SNA) model. Format: in vivo. As to conditions: mice, Figure 2. The text has this: Methods: Mice were anesthetized with isoflurane, and the skin of the right hind limb was shaved and sterilized with iodine. An incision was made between the knee and hip joints, and the gluteal muscle was carefully separated using a pair of sterile surgical scissors. The sciatic nerve was cut proximally to the thigh with a pair of sterile surgical scissors, and a 1-2 mm segment of the nerve was removed to prevent axonal regeneration into the distal stump. The gluteal muscle was then placed back to its original anatomical position, and the overlying skin was reattached with surgical staples or sutures.
To examine the denervation of the neuromuscular junction (NMJ), the tibialis anterior muscles were dissected from perfused animals and fixed overnight with 4% paraformaldehyde/PBS at 4°C. Immunohistochemical staining was subsequently performed with Neurofilament-L antibody and Synapsin-1 antibody as well as acetylcholine receptor (AchR) markers. Finally, imaging was performed by laser confocal microscope Zeiss LSM710.

Series [2] can be described thus: Pharmacokinetic evaluation in mice. The class given is in vivo, CD1 mice. As to conditions: plasma. How it is done: The test compound was dissolved in the vehicle to prepare a clear solution or a homogeneous suspension. Three mice (CD1 mice) per group were administered 2 mg/kg via the tail vein and 10 mg/kg orally (PO). Blood was collected at 0.083 h, 0.25 h, 0.5 h, 1 h, 2 h, 4 h, 8 h, and 24 h after intravenous administration, and at 0.083 h, 0.25 h, 0.5 h, 1 h, 2 h, 4 h, 8 h and 24 h after oral administration. Plasma samples were centrifuged, and the supernatant was collected to prepare samples for quantitative analysis by LC/MS/MS. Conclusion: At least some of the compounds of the present application (e.g., compound 25) have excellent pharmacokinetic properties in mice (including but not limited to Cl (clearance rate), T1/2 (half-life), Cmax (peak concentration), AUC (area under the drug-time curve), F (bioavailability), etc.). Table 6 The mouse PK properties of compound 25

A short description of series [3]: Liver microsomal stability in vitro. Particulars: liver microsomes, NADPH, 37 °C, 0-45 min. The class given is in vitro ADME. As to the method: 100 mM K-Mg-buffer containing 5 mM MgCl2 was preheated. The spiking solution was prepared by adding 5 µL of 10 mM compound and reference stock solution to 95 µL of acetonitrile (ACN). 1.5 µL of 500 µM spiking solution and 18.75 µL of 20 mg/mL liver microsomes were added to 479.8 µL of K-Mg-buffer. NADPH stock solution (3 mM) was prepared by dissolving NADPH in K-Mg-buffer. 30 µL of 1.5 µM spiking solution containing microsomes was evenly dropped into the assay plate at different time points (0, 5, 15, 30, and 45 min), and pre-incubated at 37 °C for 5 min. At 0 min, 200 µL of ACN containing IS (internal standard, tolbutamid/terfenadine) was added to the wells, then 15 µL of NADPH stock solution (6 mM) was added. For the other time points, the reaction was initiated and timed by adding 15 µL of NADPH stock solution (6 mM) to the wells. The reaction was stopped by adding 200 µL of ACN containing IS to the corresponding plate wells at 5, 15, 30, and 45 min, respectively. After quenching, the plate was shaken at 600 rpm for 10 min and then centrifuged at 4000 rpm for 50 min. 80 µL of supernatant per well was pipetted to a 96-well sample plate containing 160 µL of pure water for UPLC/MS/MS analysis.

Usually efflux ratio stands for a quotient of directional permeabilities that is used to spot active efflux. The term Papp A→B denotes the apparent permeability from the apical to the basolateral side of a cell layer. Usually IC50 stands for the concentration that gives 50% inhibition. Low readings indicate inhibition by little substance, high ones a need for much substance. One may read the AUC(0-inf) as the area under the concentration-time curve extrapolated to infinity. Read a high AUC(0-inf) as more exposure. In general, clearance refers to the volume of plasma or blood freed of the substance per unit of time. What is called half-life is the time in which the quantity being followed falls by half. Read a low half-life as rapid decline. A word on the Cmax: it is the highest concentration seen after dosing. Usually Tmax stands for the time at which the peak concentration occurs. As usually defined, the bioavailability is the share of a dose that reaches the circulation, judged against a reference dose that is usually intravenous. Low values mean little systemic uptake, high ones much systemic uptake. For `O=C1C(Cc2ccc(Cl)c(F)c2)CCCN1c1nc2c([nH]1)COc1cnccc1-2` (stereo not drawn) [Cpd. 25], the efflux ratio at 2 h, 10 µM in series [1] was 0.9. For the same molecule, the Papp A→B at 2 h, 10 µM in series [1] (A to B) was found to be 7.56 ×10⁻⁶ cm/s. The IC50 against SARM1 is less than 150 nM. Moreover, in the series on sciatic nerve, the “protection of axons from injury-induced axonal degeneration” value was “significantly protect axons from injury-induced axonal degeneration”. In series [2] (mouse IV (2 mg/kg)), this molecule had an AUC(0-inf) of 2210 ng·h/mL, a C0 of 2110 ng/mL, a clearance of 15.1 mL/min/kg and a half-life of 79.8 min. Besides, the Vd in series [2] (mouse IV (2 mg/kg), read-out: Vss) was found to be 1.31 L/kg. In series [2] (mouse PO (10 mg/kg)), the AUC(0-inf) was 9820 ng·h/mL, the Cmax came out at 3000 ng/mL, the Tmax amounted to 25 min and the half-life is 110 min. This molecule had a bioavailability in series [2] (mouse PO (10 mg/kg) vs IV (2 mg/kg)) of 89%. This molecule registered a half-life in series [3] of 26.1 min.
